Earlier results as cited in US11930809B2, “Preservation of biomaterial properties and methods of storing” (LIFELINE SCIENTIFIC, INC., priority 2012, dated 2024).

Experiments:
[1] = test system: chondrocytes in articular cartilage; conditions: conventional cryopreservation by freezing in a solution that includes DMSO
[2] = test system: TIMP-1
[3] = early Phase clinical studies

Question: With `C[S+](C)[O-]` [DMSO, dimethyl sulfoxide] as the compound, how does the “death of chondrocytes in articular cartilage” value [1] read?
Answer: 80-100%

Question: With `COC(=O)C1=CO[C@@H](O)[C@@H]2C(CO)=CC[C@H]12` [genipin] as the compound, how does the “expression of TIMP-1” value [2] read?
Answer: upregulate the expression of TIMP-1

Question: For “PCK3145: synthetic peptide corresponding to amino acids 31-45 of prostate secretory protein 94 (EWQTDNCETCTCYET; UniProt P08118 51-65, looked up, fragment)”, which tolerability [3] is on record?
Answer: well tolerated
